Test results: paper PMC9525908, “α-Crystallin chaperone mimetic drugs inhibit lens γ-crystallin aggregation: Potential role for cataract prevention” (The Journal of Biological Chemistry, 2022)
Where a chain is given by its changes, count along the chain named. “Also recorded” adds a separate entry of the source.

Columns and labels:
Assay type in all cases: biochemical
bovine gamma crystallins = experiment: Screen: H2O2 and heat mediated aggregation of bovine gamma crystallins, turbidimetry at 600 nm; conditions: 500 μM compound, H2O2 with or without added thermal stress
Method: For the initial screen, a microtiter plate assay was developed in which bovine crystallins (2 mg/ml of 50 mM K3PO4 buffer, pH 7.2 [buffer A]) were exposed to H2O2 at varying concentrations (1–50 mM) for 12 to 36 h, upon which turbidity developed (at 50 mM H2O2 concentration) in both β- and γ-crystallins (Fig. 1, A and B). […] This was determined by turbidimetry at 600 nm (Fig. 1C) and confirmed using visual assessment of solution transparency over a fine text as well as the presence of cloudy aggregates visible by dark field microscopy (Fig. 1D). The drug:protein stoichiometric ratio was about 5:1. The wavelength of 600 nm was chosen to minimize interference by colored compounds, many of which absorb below 500 nm (Fig. 1E).
Wells were filled with 90 μl calf γ-crystallin-rich protein solution (pool 4 at 2 mg/ml) followed by 0.5 to 5.0 μl of drug (all 10 mM stock solution in DMSO) as supplied by the manufacturer and 10 μl H2O2 (450 mM stock solution in water) and sealed with sticky Applied Biosystems MicroAmp Clear Adhesive films (Life Technologies). Control wells received DMSO only. […] In order to quantitate the impact of the drugs on aggregation, a fitness plot was created (Fig. 1 C) that allowed us to identify wells with enhanced/worsening versus suppressed crystallin aggregation. In addition, aggregation in each well was also visually assessed by two independent “blinded” readers for the ability to read fine print through each well by placing the plates over small font text (Fig. 1D). Both machine and visual readouts were reconciled in order to increase robustness.

WT-MγS = target: T1, WT-MγS (Mus musculus, UniProt O35486); experiment: End-point heat-mediated turbidity assay, WT-MγS; conditions: 400 μM drug, 72 °C, protein above 0.5 mg/ml
T1 construct: made in house; host or cells: E. coli BL21(DE3) pLysS, pET17b vector
T1 sequence (O35486 1-178): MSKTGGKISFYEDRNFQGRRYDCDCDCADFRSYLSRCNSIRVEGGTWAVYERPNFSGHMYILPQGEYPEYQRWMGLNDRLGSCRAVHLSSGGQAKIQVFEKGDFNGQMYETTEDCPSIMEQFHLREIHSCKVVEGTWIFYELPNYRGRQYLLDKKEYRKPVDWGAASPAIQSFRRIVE
Method: For end-point assays, HγD and MγS (1 mg/ml, 100 μl) in 50 mM K3PO4 buffer (pH 7.2) in set of triplicates in transparent flat bottom 96-well plates were heated at 72 °C for 20 min in the presence and absence of selected drugs at varying concentrations. Absorbance was measured at 600 nm with a SpectraMax iD5 (Molecular Devices). […]
(§1) Final DMSO concentration was 5% including in control samples. Microtiter plates were first incubated for 10 min at 72 °C and reincubated for 10 more min. Absorbance was measured at both 10 and 20 min total incubation time.

Bovine γ-crystallins = experiment: Thermal aggregation (72 °C) turbidity assay, bovine γ-crystallins (pool 4); conditions: for Thermal denaturation inhibitory activity in subscreen: 150 μM; for Thermal denaturation inhibitory activity in subscreen / % Suppression: 72 °C 20 min; for % Suppression: 75 μM protein, 125 μM or less inhibitor (1.7:1)
Method: Candidate compounds were rescreened using thermal denaturation upon heating at 72 °C for 20 min according to Chen et al. ([36]) in order to select for compounds with chaperone rather than antioxidant activity since a large number of the latter already exist in the cataract field ([37]).
(§2) For a review, see the study by Roskamp et al. ([38]). […] For the mechanistic studies below these two compounds together with either drug M, chosen mostly as negative control, or the entire set of six compounds were used for comparison purpose, whereby the words “drug” or “compound” are used interchangeably in the studies later.
All assays were carried out manually in CORNING #9017 Costar Assay 96-well plates. Wells were filled with 90 μl calf γ-crystallin-rich protein solution (pool 4 at 2 mg/ml) followed by 0.5 to 5.0 μl of drug (all 10 mM stock solution in DMSO) as supplied by the manufacturer and 10 μl H2O2 (450 mM stock solution in water) and sealed with sticky Applied Biosystems MicroAmp Clear Adhesive films (Life Technologies). Control wells received DMSO only. Plates were shaken for 2 min and incubated from 24 to 72 h in a culture room at 37 °C. […] A second reading was performed following a heat shock of 20 min at 72 °C as described by Chen et al. ([36]) in order to capture drugs with heat-resistant chaperone activity. In order to quantitate the impact of the drugs on aggregation, a fitness plot was created (Fig. 1 C) that allowed us to identify wells with enhanced/worsening versus suppressed crystallin aggregation. In addition, aggregation in each well was also visually assessed by two independent “blinded” readers for the ability to read fine print through each well by placing the plates over small font text (Fig. 1D). Both machine and visual readouts were reconciled in order to increase robustness.
as §1

HγD = target: T2, HγD (Homo sapiens, UniProt P07320); experiment: Thermal aggregation (72 °C) turbidity assay, recombinant HγD
T2 construct: made in house; host or cells: E. coli BL21(DE3) pLysS, pET3d vector
T2 sequence (P07320 1-174): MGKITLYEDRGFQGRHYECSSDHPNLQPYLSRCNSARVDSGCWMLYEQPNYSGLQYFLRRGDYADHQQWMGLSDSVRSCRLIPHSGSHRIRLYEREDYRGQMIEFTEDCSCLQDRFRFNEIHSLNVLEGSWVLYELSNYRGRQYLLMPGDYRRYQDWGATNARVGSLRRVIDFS
Method: For refinement of the aforementioned screen, these compounds were tested at concentrations varying from 50 to 500 μM and 1.5 mg/ml concentration of recombinant HγD, human gamma S (HγS), its deamidation mutants γS_N14, γS_N76, γS_N143 and its triple mutant γSTM (Fig. 1F). In addition, other drugs and compounds that tested positive in the initial screen were also included, such as escin (E), hematein (I), citric acid (CA), docusate sodium (DS), and sennoside A (S) (Fig. S1B). […] For a review, see the study by Roskamp et al. ([38]). […] Thus, drug C and drug G emerged as the strongest antidenaturation/aggregation and potential anticataract drugs. For the mechanistic studies below these two compounds together with either drug M, chosen mostly as negative control, or the entire set of six compounds were used for comparison purpose, whereby the words “drug” or “compound” are used interchangeably in the studies later.
For end-point assays, HγD and MγS (1 mg/ml, 100 μl) in 50 mM K3PO4 buffer (pH 7.2) in set of triplicates in transparent flat bottom 96-well plates were heated at 72 °C for 20 min in the presence and absence of selected drugs at varying concentrations. Absorbance was measured at 600 nm with a SpectraMax iD5 (Molecular Devices).
HγD protein (2.5 mg/ml buffer A) was incubated at 72 °C for 20 min without or with 100 or 400 μM drug G or C in buffer A. Final DMSO concentration was 5% in all samples. […] Therefore, samples with and without 400 μM drug G were chosen for identification of drug G-induced miscleavage sites upon digestion with 25:1 protein:trypsin ratio (sequencing grade modified trypsin; Promega) in buffer A. After 4 h, samples were frozen at −80 °C until processed for determination of miscleavage sites using proteomics analysis. LC–MS/MS analysis was performed on an Orbitrap Eclipse mass spectrometer (Thermo Fisher Scientific) coupled with a Waters nanoAcquity UPLC system (Waters) in total 90 min run using a linear gradient range from 0 to 42% solvent B (0.1% formic acid in acetonitrile) versus solvent A (0.1% formic acid in water) at a flow rate of 300 nl/min. MS1 full mass spectra were acquired in the Orbitrap mass analyzer at the resolution of 120 K. MS/MS tandem mass spectra were generated in the ion trap mass analyzer by collision-induced dissociation of peptide ions at a normalized collision energy of 35%. The resulting MS/MS spectra were searched against human gamma D protein database using Mass Matrix software (MassMatrix, Inc) with the mass errors of 10 ppm and 0.8 Da for MS1 and MS/MS scans, respectively. The oxidation of methionine was set for variable modifications, and three miscleavages were allowed for the search.
as §1

HγS_N143D = target: T3, HγS_N143D (Homo sapiens, UniProt P22914, N144D); experiment: Thermal aggregation (72 °C, 20 min) turbidity assay, HγS_N143D; conditions: HγS_N143D; 75 μM protein, 125 μM or less inhibitor (1.7:1), 72 °C 20 min
T3 sequence (P22914 1-178 N144D): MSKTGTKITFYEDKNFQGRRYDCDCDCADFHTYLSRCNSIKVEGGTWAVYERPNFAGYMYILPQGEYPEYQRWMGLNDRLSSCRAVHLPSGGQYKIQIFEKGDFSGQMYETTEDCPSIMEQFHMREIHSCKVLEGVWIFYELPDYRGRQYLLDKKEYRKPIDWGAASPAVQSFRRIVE
Source text: as §2

HγS = target: T4, HγS (Homo sapiens, UniProt P22914); experiment: Thermal aggregation (72 °C, 20 min) turbidity assay, HγS; conditions: HγS; 75 μM protein, 125 μM or less inhibitor (1.7:1), 72 °C 20 min
T4 sequence (P22914 1-178): T3 sequence (P22914 1-178 N144D) with D144N
Source text: as §2

| Compound | Outcome in the library screen (effect on aggregation/turbidity at 600 nm) (bovine gamma crystallins) | also measured |
| --- | --- | --- |
| Cc1c(C(=O)O)c(O)cc2c1C(=O)c1c(O)c(C3O[C@H](CO)[C@@H](O)[C@H](O)[C@H]3O)c(O)c(O)c1C2=O (stereo in doubt) [carmine] | no impact | – |
| O=C(O)CC(O)(CC(=O)O)C(=O)O [CA, citric acid] | positive | – |
| CCCCCCCCCCCCCCCCC(C(=O)O)C(O)(CC(=O)O)C(=O)O (centres unmarked) [drug A, agaric acid] | – | Effect on MγS absorbance (WT-MγS): blocked absorbance; also recorded: protects; Effect on BGC aggregation at 2.0 mg/ml at 10 min (Bovine γ-crystallins; 400 μM drug, 72 °C, 10 min): improved BGC aggregation; also recorded: protects; Effect on HγD aggregation at low protein (HγD; 400 μM drug, 72 °C): not; Effect on HγD at 2.0 mg/ml and 20 min (HγD; 400 μM drug, 72 °C, 20 min): suppressed; also recorded: protects |
| CCCCC(CC)COC(=O)CC(C(=O)OCC(CC)CCCC)S(=O)(=O)O (centres unmarked) [drug DS, docusate sodium] | positive | – |
| CC1=C(CCC(=O)O)c2cc3[nH]c(cc4nc(cc5[nH]c(cc1n2)c(C)c5C(C)O)C(C)=C4C(C)O)c(C)c3CCC(=O)O (centres unmarked) [drug H, hematoporphyrin] | positive | Thermal denaturation inhibitory activity in subscreen (Bovine γ-crystallins): thermal denaturation inhibitory activity |
| O=C1C=C2CC3(O)COc4c(ccc(O)c4O)C3=C2C=C1O (centres unmarked) [drug I, hematein] | positive | – |
| O=C(O)c1cc(O)c2c(c1)[C@H]([C@H]1c3cc(C(=O)O)cc(O)c3C(=O)c3c(O[C@@H]4O[C@H](CO)[C@@H](O)[C@H](O)[C@H]4O)cccc31)c1cccc(O[C@@H]3O[C@H](CO)[C@@H](O)[C@H](O)[C@H]3O)c1C2=O [drug S, sennoside A] | positive | – |
| CCCCCCCCCCCCCCOS(=O)(=O)[O-].[Na+] [drug T, tetradecyl sulfate sodium] | – | % Suppression (HγS_N143D): 42%; Thermal denaturation inhibitory activity in subscreen (Bovine γ-crystallins): thermal denaturation inhibitory activity; % Suppression (HγS): 40% |
| C=CCCCCCCCCCCCC(O)CC(O)CO (centres unmarked) [drug V, avocadene] | – | Thermal denaturation inhibitory activity in subscreen (Bovine γ-crystallins): thermal denaturation inhibitory activity; % Suppression (Bovine γ-crystallins; Bovine γ-crystallins experiment 1): 36%; % Suppression (Bovine γ-crystallins; Bovine γ-crystallins experiment 2): 53% |
| O=C(O[C@@H]1Cc2c(O)cc(O)cc2O[C@@H]1c1cc(O)c(O)c(O)c1)c1cc(O)c(O)c(O)c1 [epigallocatechin gallate] | improved aggregation | – |
| COc1ccc([C@@H]2CC(=O)c3c(O)cc(O)cc3O2)cc1O [hesperetin] | no impact | – |
| CC(C)=CCC[C@@H](C)[C@H]1CC[C@@]2(C)C3=C(CC[C@]12C)[C@@]1(C)CC[C@H](O)C(C)(C)[C@@H]1CC3 [lanosterol] | no impact | – |
| O=c1c(O)c(-c2ccc(O)cc2O)oc2cc(O)cc(O)c12 [morin] | no impact | – |
| O=c1c(O)c(-c2ccc(O)c(O)c2)oc2cc(O)cc(O)c12 [quercetin] | worsened aggregation | – |
| escin [drug E] | positive | – |
| hemin | positive | – |
| pool 1: purified high–molecular weight bovine α-crystallins, used as positive control | – | Inhibition of pool 4 protein aggregation by positive control (Bovine γ-crystallins; thermal aggregation): potently inhibit; Inhibition of HγD aggregation by positive control (HγD; thermal aggregation): potently inhibit |
